Test results from article PMC5074076, “Novel minimal physiologically-based model for the prediction of passive tubular reabsorption and renal excretion clearance” (European Journal of Pharmaceutical Sciences, 2016).
Values joined by “and” are separate entries in the source; they are usually repeats but may differ in a detail not shown here. Equal values may be shown once. Read-outs that look alike come from different tables or passages of the source.

Columns and labels:
[1] = Observed clearance ratio and fraction reabsorbed (Freab, Freab′) calculated from CLR, fu,p and GFR; conditions: for Apparent Freab / Apparent Freab’: calculated from observed CLR, fu,p and GFR; for Freab: observed/apparent, 1 - CLR/(GFR x fu,p), GFR 120 mL/min
Method: The clearance ratio was calculated from clinical data using Eqs. […] For the remaining drugs the fraction reabsorbed (Freab) was calculated using Eq.
GFR values for healthy subjects may vary as a result of biological as well as inter-individual variation and also the method of measurement. […] Individual GFR values for subjects in clinical trials databases were generally not available.
In the proposed model, the nephron is represented as five compartments, namely the glomerulus and four tubular regions, as depicted in Fig. 1. The tubular compartments in the model, listed in anatomical order starting from the glomerulus are: the proximal tubule (PT), the loop of Henle (LoH), the distal tubule (DT) and the collecting duct (CD). […] The relationship between Freab′ and Freab is shown in Eq. (11). The predicted overall Freab′ was calculated from the predicted Freab′ in each (i) tubular region (Freab,i′), as shown in Eq. (12).

[2] = LogD7.4 octanol-buffer, shake-flask (or ACD / BioByte); conditions: octanol/buffer, pH 7.4
From the text: (§1) The pKa values associated with ionisable centres identified within a given drug were used to calculate the fraction of drug ionised at pH 6.5. Drugs were then classified into groups as follows: drugs with > 50% unionised at pH 6.5 were classified as “Neutral”; drugs with > 50% ionised as mono −/di −/tri-protic acids or bases were classified as “Acid” or “Base”, respectively; “Zwitterions” were classified as drugs with > 50% ionised, with the major ionised species having no net charge; all other drugs were classified as amphoteric. […] LogD6.5 for neutral, amphoteric and zwitterion drugs were assumed to be equal to LogD7.4.

[3] = Ionisation classification at pH 6.5 from pKa; type: physicochemical; conditions: predominant species (> 50%) at pH 6.5 from measured or calculated pKa
From the text: as §1

[4] = Papp-Freab′ calibration of Caco-2 Papp with reference drugs and CLR prediction; parameters: species or system human; conditions: reference drugs; calibrated Caco-2 Papp after Hill equation fitting
From the text: To account for this and to allow the Caco-2 data in the present study to be transferable to other assay formats/laboratories, a Papp–Freab′ calibration method was explored by splitting the available Papp and Freab′ data into ‘reference’ and internal ‘validation’ subsets. […] The calibration approach is proposed as a pragmatic method to account for inter-assay/inter-laboratory differences; herein it is applied to the current dataset only, and not external data as intended for future studies.
In order to evaluate the application of Papp–Freab′ calibration (Eq. (17)), 11 drugs were selected as reference ‘calibrator’ drugs (Papp,ref) covering a representative range of Freab′ and Papp values (Table 5). The remaining 34 drugs were treated as an internal ‘validation’ set.

[5] = cited from earlier work; for CLR: healthy adult subjects, overall weighted mean of literature values, absolute (not normalised), ref Supplementary Results Table S2.1; for Overall weighted mean CLR: healthy subjects, plasma and urine data from same subjects, normalised for subject weight and body surface area where necessary; for Overall weighted mean CLR / CLR Observed: ref Table S2.1; for CLR Observed: overall weighted mean of values obtained from a literature survey
[6] = Caco-2 apparent permeability (Papp), apical to basolateral, pH 6.5-7.4 gradient, efflux inhibitor cocktail; conditions: human, Caco-2, pH 6.5
Method: (§2) The assay was performed using the apical to basolateral pH gradient format of pH 6.5 to pH 7.4. […] The efflux transporter inhibitor cocktail was used to minimise the effect of efflux transporters expressed in Caco-2 cells (e.g. P-glycoprotein, BCRP and MRP2) on the estimate of apical to basolateral Papp of substrates for such transporters.

Caco-2 cell monolayers = test: as above; conditions: Caco-2, apical to basolateral, pH 6.5 to 7.4, efflux inhibitor cocktail, 2 h
Method: as §2

[7] = pKa, potentiometric AstraZeneca in-house assay (or ACD / BioByte); conditions: measured, potentiometric
From the text: as §1

[8] = LogD6.5 estimated from LogD7.4 and pKa; conditions: octanol/buffer, pH 6.5
From the text: as §1

in vitro = conditions: human, Caco-2, pH 6.5
Method: as §2

[9] = parameters: method as in Hammarlund et al., 1985; Swärd et al., 2005; conditions: healthy subjects or cardiac surgery patients, well hydrated; ref Hammarlund et al., 1985; Swärd et al., 2005; cited from earlier work

Compound: Cc1cccc(C)c1NC(=O)C(C)N (centres unmarked) [Tocainide]
- Apparent Freab [1]: 0.181
- Apparent Freab’ [1]: 0.183
- Freab [1]: 0.18
- logD [2]: 0.03
- Ionisation at pH 6.5 [3]: Base
- Papp,ref,calibrated [4]: 4.68 × 10^− 6 cm/s
- CLR [5]: 67.5 mL/min
- Overall weighted mean CLR [5]: 67.5 mL/min
- CLR Observed [5]: 67.50 mL/min
- Papp A→B at 2 h [6]: 19 ×10⁻⁶ cm/s
- Papp (Caco-2 cell monolayers): 19 × 10^− 6 cm/s

Compound: C[C@@H]1CN(c2c(F)c(N)c3c(=O)c(C(=O)O)cn(C4CC4)c3c2F)C[C@H](C)N1 [Sparfloxacin]
- Apparent Freab [1]: 0.731
- Apparent Freab’ [1]: 0.737
- Freab [1]: 0.73
- pKa ([7]; pKa (acid)): 6.31
- pKa ([7]; pKa (base)): 8.94
- Ionisation at pH 6.5 [3]: Zwitterion
- Papp,ref,calibrated [4]: 34.35 × 10^− 6 cm/s
- CLR [5]: 21.7 mL/min
- Overall weighted mean CLR [5]: 21.7 mL/min
- CLR Observed [5]: 21.69 mL/min
- Papp A→B at 2 h [6]: 49.8 ×10⁻⁶ cm/s
- Papp (Caco-2 cell monolayers): 49.83 × 10^− 6 cm/s

Compound: C[C@@H](c1ncncc1F)[C@](O)(Cn1cncn1)c1ccc(F)cc1F [Voriconazole]
- logD [2]: 1.7
- Ionisation at pH 6.5 [3]: Neutral
- logD [8]: 1.7
- Papp,ref,calibrated [4]: 134.68 × 10^− 6 cm/s
- CLR [5]: 1.57 mL/min
- Overall weighted mean CLR [5]: 1.6 mL/min
- CLR Observed [5]: 1.57 mL/min
- Papp A→B at 2 h [6]: 96.5 ×10⁻⁶ cm/s
- Papp (Caco-2 cell monolayers): 96.51 × 10^− 6 cm/s

Compound: CCCNC(=O)NS(=O)(=O)c1ccc(Cl)cc1 [Chlorpropamide]
- Apparent Freab [1]: 0.907
- Apparent Freab’ [1]: 0.915
- Freab [1]: 0.91
- pKa ([7]; pKa (acid)): 4.69
- Ionisation at pH 6.5 [3]: Acid
- logD [8]: 0.56
- Papp,ref,calibrated [4]: 111.60 × 10^− 6 cm/s
- CLR [5]: 0.56 mL/min
- Overall weighted mean CLR [5]: 0.6 mL/min
- CLR Observed [5]: 0.56 mL/min
- Papp A→B at 2 h [6]: 88.1 ×10⁻⁶ cm/s
- Papp (Caco-2 cell monolayers): 88.1 × 10^− 6 cm/s

Compound: C=CCOc1ccccc1OCC(O)CNC(C)C (centres unmarked) [Oxprenolol]
- Apparent Freab [1]: 0.443
- Apparent Freab’ [1]: 0.447
- Freab [1]: 0.44
- pKa ([7]; pKa (base)): 9.6
- logD [2]: 0.23
- Ionisation at pH 6.5 [3]: Base
- Papp,ref,calibrated [4]: 12.00 × 10^− 6 cm/s
- CLR [5]: 9.35 mL/min
- Overall weighted mean CLR [5]: 9.4 mL/min
- CLR Observed [5]: 9.35 mL/min
- Papp A→B at 2 h [6]: 30 ×10⁻⁶ cm/s
- Papp (Caco-2 cell monolayers): 29.95 × 10^− 6 cm/s

Compound: CC(C)NCC(O)COc1ccc(CCOCC2CC2)cc1 (centres unmarked) [Betaxolol]
- Apparent Freab [1]: 0.081
- Apparent Freab’ [1]: 0.081
- Freab [1]: 0.08
- pKa ([7]; pKa (base)): 9.53
- logD [2]: 0.63
- Ionisation at pH 6.5 [3]: Base
- CLR [5]: 49.6 mL/min
- Overall weighted mean CLR [5]: 49.6 mL/min
- CLR Observed [5]: 49.64 mL/min
- Papp A→B at 2 h [6]: 20 ×10⁻⁶ cm/s

Compound: NCC1(CC(=O)O)CCCCC1 [Gabapentin]
- Apparent Freab [1]: 0.183
- Apparent Freab’ [1]: 0.185
- Freab [1]: 0.18
- Ionisation at pH 6.5 [3]: Zwitterion
- Papp A→B (in vitro): 0.67 ×10⁻⁶ cm/s
- CLR [5]: 95.1 mL/min
- Overall weighted mean CLR [5]: 95.1 mL/min
- CLR Observed [5]: 95.05 mL/min

Compound: CCCCC1=NC2(CCCC2)C(=O)N1Cc1ccc(-c2ccccc2-c2nnn[nH]2)cc1 [Irbesartan]
- Apparent Freab [1]: 0.623
- Apparent Freab’ [1]: 0.628
- Freab [1]: 0.62
- pKa ([7]; pKa (acid)): 3.91
- logD [2]: 1.29
- Ionisation at pH 6.5 [3]: Acid
- logD [8]: 2.19
- CLR [5]: 2.37 mL/min
- Overall weighted mean CLR [5]: 2.4 mL/min
- CLR Observed [5]: 2.37 mL/min
- Papp A→B at 2 h [6]: 44 ×10⁻⁶ cm/s

Compound: NS(=O)(=O)c1cc(C(=O)O)c(NCc2ccco2)cc1Cl [Furosemide]
- increase in urine flow compared to control conditions [9]: up to 20 mL/ min

Compound: CN(C)[C@@H]1C(O)=C(C(N)=O)C(=O)[C@@]2(O)C(O)=C3C(=O)c4c(O)cccc4[C@@](C)(O)[C@H]3[C@H](O)[C@@H]12 [Oxytetracycline]
- Apparent Freab [1]: 0.019
- Apparent Freab’ [1]: 0.019
- Freab [1]: 0.02
- Ionisation at pH 6.5 [3]: Zwitterion
- Papp,ref,calibrated [4]: 0.01 × 10^− 6 cm/s
- CLR [5]: 90.8 mL/min
- Overall weighted mean CLR [5]: 90.8 mL/min
- CLR Observed [5]: 90.80 mL/min
- Papp A→B at 2 h [6]: 0.85 ×10⁻⁶ cm/s
- Papp (Caco-2 cell monolayers): 0.85 × 10^− 6 cm/s

Compound: Cc1cc(NC(=O)C2=C(O)c3ccccc3S(=O)(=O)N2C)no1 [Isoxicam]
- Apparent Freab [1]: 0.995
- Apparent Freab’ [1]: 1.003
- Freab [1]: 1.00
- Freab ([1]; listed as isoxicam): ≥ 0.99
- Freab′ ([1]; observed, fraction of equilibrium reached between urine and plasma): 1
- pKa ([7]; pKa (acid)): 3.84
- Ionisation at pH 6.5 [3]: Acid
- logD [8]: 0.7
- CLR [5]: 0.02 mL/min
- CLR ([5]; listed as isoxicam): 0.022 mL/min
- CLR Observed [5]: 0.02 mL/min
- Papp A→B at 2 h [6]: 142 ×10⁻⁶ cm/s

Compound: CCCN(CCC)S(=O)(=O)c1ccc(C(=O)O)cc1 [Probenecid]
- Apparent Freab [1]: 0.955
- Apparent Freab’ [1]: 0.963
- Freab [1]: 0.96
- Freab ([1]; listed as probenecid): 0.955
- pKa ([7]; pKa (acid)): 3.36
- Ionisation at pH 6.5 [3]: Acid
- logD [8]: 0.76
- CLR [5]: 0.50 mL/min
- Overall weighted mean CLR [5]: 0.5 mL/min
- CLR Observed [5]: 0.50 mL/min
- Papp A→B at 2 h [6]: 84.5 ×10⁻⁶ cm/s

Compound: NC(=O)c1ncn([C@@H]2O[C@H](CO)[C@@H](O)[C@H]2O)n1 [Ribavirin]
- Apparent Freab [1]: 0.084
- Apparent Freab’ [1]: 0.085
- Freab [1]: 0.08
- Ionisation at pH 6.5 [3]: Neutral
- Papp,ref,calibrated [4]: 0.03 × 10^− 6 cm/s
- CLR [5]: 109.9 mL/min and 110 mL/min
- Overall weighted mean CLR [5]: 109.9 mL/min
- CLR Observed [5]: 109.94 mL/min
- Papp A→B at 2 h [6]: 1.55 ×10⁻⁶ cm/s
